Measurements reported in US20240100473A1, “CARBON DIOXIDE ABSORBER” (MITSUBISHI GAS CHEMICAL COMPANY, INC., priority 2021, published 2024).

Experiments:
[1] = Evaluation of absorbed amount of carbon dioxide from air (desiccator); details: 5 mmol amine compound in desiccator, air 23° C. and 50% RH, initial CO2 about 400 ppm, after 24 hours
Procedure: (Evaluation of Absorbed Amount of Carbon Dioxide from Air)
A carbon dioxide concentration meter and a petri dish were placed inside an openable desiccator (Internal Dimension: 370 mm×260 mm×272 mm). The amine compound (5 mmol) was then added to the petri dish in the desiccator, a door was immediately closed, and the carbon dioxide concentration in the desiccator was measured over time for 24 hours under an air environment of 23° C. and 50% RH. The initial concentration of carbon dioxide was adjusted to about 400 ppm. Changes of the carbon dioxide concentration in the desiccator 24 hours after the amine compound was placed in the desiccator are shown in Table 1. Here, it is meant that the greater the change of the carbon dioxide concentration in the desiccator is, the greater the amount of the carbon dioxide absorbed by the carbon dioxide absorbent is.

[2] = Maximum carbon dioxide release temperature of amine compound (DSC); type: physicochemical; details: amine compound with CO2 absorbed from air for 24 h; DSC 23 to 250° C., 10° C./min, nitrogen atmosphere
Procedure: The amine compound (A) is heated with carbon dioxide absorbed from 23° C. to 250° C. at 10° C./minute of a heating rate, and a temperature at which an endothermic amount associated with desorption of carbon dioxide reaches a maximum is measured, and this temperature is taken as the maximum carbon dioxide release temperature. Here, the amine compound (A) with carbon dioxide absorbed can be prepared, for example, by allowing 5 mmol of the amine compound (A) to stand in the air at 23° C. and 50% RH for 24 hours.
(Maximum Carbon Dioxide (CO2) Release Temperature of Amine Compound)
After the above evaluation of the absorbed amount of carbon dioxide from the air was completed, the amine compound was removed from the desiccator as the amine compound having carbon dioxide absorbed. The DSC measurement was performed on the amine compound with carbon dioxide absorbed as follows, to measure the maximum carbon dioxide release temperature of the amine compound. First, the differential scanning calorimetry was performed on the amine compound using the differential thermogravimetric analyzer (Product Name: DTG-60 produced by Shimadzu Corporation) under the conditions of 23 to 250° C. of a measurement temperature range, 10° C./min of the heating rate, and the nitrogen atmosphere. From the DSC curve obtained thereby, the temperature at which the endothermic amount associated with the desorption of carbon dioxide reached the maximum was calculated, and the temperature thereof was used as the maximum carbon dioxide release temperature of the amine compound.

[3] = Maximum endothermic temperature of amine compound (DSC); type: physicochemical; details: DSC 23 to 350° C., 10° C./min, nitrogen atmosphere; volatilization of amine compound
Procedure: Heating the amine compound (A) from 23° C. to 350° C. at 10° C./minute of the heating rate, measuring a temperature at which an endothermic amount associated with the volatilization of the amine compound (A) reaches a maximum, and letting this temperature be the maximum endothermic temperature of the amine compound (A).
(Maximum Endothermic Temperature of Amine Compound)
DSC measurements were performed on the amine compounds used in Examples and Comparative Examples to measure the maximum endothermic temperature of the amine compounds as follows. First, a differential scanning calorimetry was performed on the amine compounds using a differential thermogravimetric analyzer (Product Name: DTG-60 produced by Shimadzu Corporation) under conditions of 23 to 350° C. of a measurement temperature range, 10° C./min of a heating rate, and a nitrogen atmosphere. From the DSC curve obtained thereby, the temperature at which the endothermic amount associated with the volatilization of the amine compound reached the maximum was calculated, and the temperature thereof was used as the maximum endothermic temperature of the amine compound.

[4] = Amine value of amine compound (JIS K7237-1995 titration); type: physicochemical; details: 0.1 g in 20 mL acetic acid, titrated with 0.1 N perchloric acid-acetic acid
Procedure: The amine value can be measured by the following method in accordance with JIS K7237-1995. • (1) Dissolving 0.1 g of the amine compound (A) in 20 mL of acetic acid. • (2) Calculating the amine value by titrating the solution obtained in the above (1) with the 0.1 N perchloric acid-acetic acid solution using the automatic potentiometric titrator (for example, AT-610 produced by Kyoto Electronics Manufacturing Co., Ltd.).
(Amine Value of Amine Compound)
The amine value was measured by the following measurement method in accordance with JIS K7237-1995. • (1) Dissolving 0.1 g of the amine compound in 20 mL of the acetic acid. • (2) Calculating the amine value by titrating the solution obtained in the above (1) with the 0.1 N perchloric acid-acetic acid solution using the automatic potentiometric titrator (AT-610 produced by Kyoto Electronics Manufacturing Co., Ltd.).

[5] = Acid dissociation constant (pKa) by acid-base titration; type: physicochemical; details: 0.2 g in 30 mL purified water, 25±2° C.
Procedure: In the present embodiments, the acid dissociation constant of the amine compound (A) is a value obtained by the following measurement method based on an acid-base titration method. • (1) Dissolving 0.2 g of the amine compound (A) in 30 mL of purified water. • (2) Calculating the acid dissociation constant (pKa) by titrating the solution obtained in the above (1) with 0.1 N perchloric acid-acetic acid solution using an automatic potentiometric titrator (for example, AT-610 produced by Kyoto Electronics Manufacturing Co., Ltd.).
(Acid Dissociation Constant (pKa) of Amine Compound)
The acid dissociation constant of the amine compound was determined by the following method. • (1) Dissolving 0.2 g of the amine compound in 30 mL of the purified water. • (2) Calculating the acid dissociation constant (pKa) by titrating the solution obtained in the above (1) with the 0.1 N perchloric acid-acetic acid solution using the automatic potentiometric titrator (AT-610 produced by Kyoto Electronics Manufacturing Co., Ltd.).
Still, let the temperature at the time of measurement be 25±2° C.

Row | Structure (SMILES) | Maximum CO2 Release Temperature [2] [°C] | Maximum Endothermic Temperature [3] [°C] | Amine Value [4] [mgKOH/g] | pKa [5] | Evaluation of CO2 Absorbed Amount: Changes of CO2 Concentration, 24h [1] [ppm]
1 | NCc1cccs1 [Example 5, 2-thiophenemethylamine] | 83.6 | 140.1 | 496 | 9.5 | 249
2 | NCc1ccco1 [Example 6, Furfurylamine] | 66.7 | 92.4 | 578 | 9.2 | 188
3 | NCCNCCN [Comparative Example 2, Diethylenetriamine, reference compound] | 127.8 | 127.8 | 1632 | 9.7 | 300
4 | Cc1ccc(CN)o1 [Example 7, 5-methylfurfurylamine] | 80.7 | 115.3 | 505 | 9.2 | 226
5 | NCc1cccc(CN)c1 [Comparative Example 1, Meta-xylylenediamine, reference compound] | 135.5 | 183.5 | 824 | 9.5 | 329

Further lines, with some results ahead:

Row | Maximum CO2 Release Temperature [2] [°C] | Maximum Endothermic Temperature [3] [°C] | Amine Value [4] [mgKOH/g] | pKa [5] | Structure (SMILES) | Evaluation of CO2 Absorbed Amount: Changes of CO2 Concentration, 24h [1] [ppm]
6 | 81.5 | 145.0 | 862 | 10.1 | NCCN1CCOCC1 [Example 4, 4-(2-aminoethyl)morpholine] | 400
7 | 80.3 | 155.9 | 862 | 9.4 | NCC1CCC(CN)O1 (stereo not drawn) [Example 1, 2,5-bis(aminomethyl)tetrahydrofuran] | 300
8 | 85.0 | 154.2 | 890 | 9 | NCc1ccc(CN)o1 [Example 2, 2,5-bisaminomethylfuran] | 306
9 | 111.0 | 127.4 | 487 | 10 | NCC1CCOCC1 [Example 3, 4-aminomethyltetrahydropyran] | 389
